In patent US20250099485A1, “COMPOSITIONS FOR PROMOTING HAIR GROWTH” (ESTETRA SRL, priority 2021, published 2025):

Key:
DP fibroblasts = test: Hair follicle organ culture: DP fibroblast emigration; assay type: cell-based, human; conditions: vs vehicle
Experimental: (§1) 12-44 full-length frontotemporal hair follicles (HF) were obtained from four human female donors >50 years old. Donors were caucasian female subjects […], respectively (Donor 1: 12 temporal anagen HFs; Donor 2: 29; Donor 3: 44; Donor 4: 32). After microdissection from skin as described (Edelkamp et al., Methods Mol Biol, 2020, 2154:105-119; and Langan et al., Exp Dermatol, 2015, December; 24(12):903-1), HFs were placed in adequate culture medium and allowed a 24 h rest period to allow them to recover from the trauma of microdissection. Test substance (either vehicle (0.3% EtOH) or E4 at concentrations of 30 μM, 3 μM or 300 nM) was added to the medium at the end of the 24 h. Total culturing time was 5-7 days depending on the studied parameters and the experimental question. The experimental design for the hair follicle organ culture experiment is depicted in FIG. 12. Longer term culture experiments may be used to analyze the capacity to delay the onset of catagen.
The DP resident fibroblasts are subjected to migration in the transition between anagen and catagen phase (Hawkshaw et al., Journ of Invest Dermatol, 2015, 135(8):2129-2132). In catagen onset, DP fibroblasts emigrate to the dermal cup through the DP stalk, whereas at anagen induction, they immigrate back in the DP. Quantifying the number of DP fibroblasts present in the DP stalk and in the DP (Kloepper et al., Exp Dermatol, 2010, March; 19(3):305-12) is therefore a direct readout for anagen induction or catagen promotion. K 15 expression—Stem cells.

[1] = test system: primary human dermal fibroblasts; test: Fibroblast monolayer scratch assay, human; assay type: cell-based; conditions: 10^−10 M to 10^−6 M, three female donors, compared with E2
Experimental: (§2) Human skin was transferred to the laboratory in holding media (DMEM containing 4% penicillin-streptomycin and Amphotericin B solution) within 30 minutes of collection. Once defatted, the skin was rinsed in HBSS with 4% PSA followed by DPBS without antibiotics, then cut into thin strips and floated on 0.2% Dispase II in DPBS overnight at 4° C., followed by manual separation of the epidermis from the dermis. Primary human epidermal keratinocytes and primary human dermal fibroblasts were then isolated.
(§3) Confluent wells of both primary keratinocytes and fibroblasts were subjected to a highly validated scratch wounding procedure (using a 1 mL sterile filter tip). Post-scratching, cells were rinsed with DPBS and cell-specific media containing treatments added to each well. Cells were imaged on a ptychographic live cell imaging platform (Livecyte 2TM, Phasefocus) for 24-48 hours. Automated tracking of individual unlabeled cells will be combined with 3D cell measurements to quantify a range of wound-relevant cell parameters including scratch closure rate.
Dose range finding experiments were conducted with E4 (10^−10M to 10^−6M) and E2 with and without Mitomycin C (MMC, to inhibit proliferation) using vehicle as negative controls. […]

[2] = test system: primary human epidermal keratinocytes; test: Keratinocyte scratch assay; assay type: cell-based; conditions: 10^−10M and 10^−7M, culture condition with 15% HKGS, compared with E2
Experimental: as §2, §3
(§4) Dose range finding experiments were conducted with E4 (10^−10M to 10^−6M) and E2 with and without Mitomycin C (MMC, to inhibit proliferation) using vehicle as negative controls.

[3] = test system: fibroblasts isolated from female C57Bl1/6 mice; test: Fibroblast monolayer scratch assay, mouse; assay type: cell-based; conditions: 10^−7 M, compared with E2
Experimental: as §3, §4
The assay was performed in the phenol red-free cell culture media containing charcoal stripped fetal bovine serum, using fibroblasts isolated from female C57Bl1/6 mice and from surplus abdominal skin donated by three female donors.

[4] = test system: mouse BMDM (bone marrow derived monocytes); test: Immune cell polarization (qPCR NOS2/ARG1), mouse BMDM; assay type: cell-based; conditions: activated mouse bone marrow derived monocytes, qPCR marker
Experimental: Immune cell polarization was evaluated in vitro using markers for M1/TH-1 (NOS2) and M2/TH-2 (ARG1) phenotype with human monocytes and mouse monocytes (BMDM bone marrow derived monocytes).
An experiment was conducted to evaluate the anti-inflammatory effects of E4 or vehicle (negative control). qPCR methodology was used to assess the effects of E2 and E4 on immune cell polarization using well validated marker of pro-inflammatory (NOS2 for MI/TH-1 phenotype) and anti-inflammatory (ARG1 for ME/TH-2 phenotype) activity.

[5] = test system: mouse lymphoma cell line L5178Y TK^+/−; test: Generation of reactive oxygen species (ROS); assay type: cell-based; conditions: up to 3000 μM, 3 h exposure, vs vehicle control
Experimental: The objective of the study was to investigate the generation of reactive oxygen species (ROS) induced by the test item, estetrol (E4), in a mouse lymphoma cell line L5178Y TK^+/−.
L5178Y TK^+/− cells in logarithmic phase of growth were plated in black 96 well cell culture plates at 1×10^4 cells in 90 μL of cell culture media. Controls and test item in triplicate were applied to the cells as a 10× concentrate in 10 μL of a 10% ethanol solution in PBS (final concentration of ethanol on plate was 1%). Cells were incubated for 3 hours at 37° C., 5% CO2, and the generation of ROS was evaluated by fluorescence with a ROS reagent: the ROS reagent was freshly prepared by dissolving one ampoule of reagent (50 μg) in 70 μL DMSO and further diluting this with 2.1 mL of pre-warmed PBS. 10 μL of ROS reagent was added to each well and the plate were shaken for 30 seconds in the dark. The plates were incubated approximately at 37° C., 5% CO2 for 1 h 30 min and fluorescence was read on a plate scanner with excitation at 492 nm and emission at 520 nm.

[6] = test system: human hair follicles (HF); test: Hair follicle organ culture: LDH release into the medium; assay type: cell-based; conditions: all tested concentrations (300 nM, 3 μM, 30 μM)
Experimental: as §1
LDH is released from the cytoplasm of damaged cells into the culture medium. Therefore, the cytotoxicity of agents can be estimated based on the activity of LDH present in the culture medium using a colorimetric assay (Cytotoxicity Detection Kit [LDH], Roche) as described (Gherardini et al Int J Cosmet Sci, 2019, April; 41(2):164-182). […]

C[C@]12CC[C@@H]3c4ccc(O)cc4CC[C@H]3[C@@H]1[C@@H](O)[C@@H](O)[C@@H]2O [E4, 1,3,5 (10)-estratrien-3,15alpha,16alpha,17beta-tetrol]
density of cells in the inductive dermal cup (DP fibroblasts; 300 nM, 3 μM, 30 μM): no significant impact
total number of cells in the DP stalk (DP fibroblasts; 300 nM): significantly reduced
total number of cells in the DP stalk (DP fibroblasts; 3 μM): significantly reduced
density of cells in the DP stalk (DP fibroblasts; all concentrations): tendentially decreased
density of cells in the DP (DP fibroblasts; all tested concentrations): did not strikingly affect
in vitro wound closure, human fibroblasts scratch assay [1]: promotes in vitro wound closure to a similar extent as E2
impact on keratinocyte migration, scratch assay [2]: seems higher than the impact of E2
in vitro wound closure, mouse fibroblasts scratch assay [3]: promotes in vitro wound closure to a similar extent as E2
immune cell polarization, mouse BMDM [4]: switch from subtype M1 (pro-inflammatory) to subtype M2 (healing)
levels of ROS [5]: dose-dependent decrease
HF cytotoxicity (LDH release into the medium) [6]: did not induce HF cytotoxicity
